Laboratory results taken from patent US20040048790A1, “Inducing cellular immune responses to p53 using peptide and nucleic acid compositions” (priority 1999, published 2004).
Non-standard residues stand in square brackets, D forms with d. Residues, ends and D or L forms follow the SMILES beside them. Abu = CC[C@H](N)C(=O)O

Experiments:
[1] = biological target: DRB1*0701 (Homo sapiens, UniProt P01903+P01911, A100R/A102G/A103Q/D57E/D86V/E43K/F76Y/K127E/L162R/M171V/P40G/Q125H/Q99D/R33Q/R42Y/R54Q/S133A/S66F/T210M/V115G/Y107V/Y59L/Y89S); assay: biochemical
[2] = biological target: DRB1*0401 (Homo sapiens, UniProt P01903+P01911, A100K/A169T/F76Y/I96L/K127E/L162R/M171V/N62H/P40V/Q125Y/R42H/S133A/S149N/S66Y/V115G/V209L/W38E); assay: biochemical
[3] = tested on: 0.221A2.1 cell line, peptide-loaded target; assay: Primary in vitro CTL induction, 51Cr release against targets pulsed with the induction peptide; conditions: Number of donors yielding a positive response/total tested; Table XXVIIb
[4] = tested on: target cells pulsed with wild-type peptide; assay: CTL recognition of targets pulsed with the wildtype peptide (51Cr release); type: cell-based, human; conditions: Number of donors yielding a positive response/total tested; Table XXVIIb
[5] = biological target: A*0203 (Homo sapiens, UniProt P04439, A173T/D140Y/D185E/D98H/E277Q/G131W/G231S/I119V/I121R/I166T/I218V/L180W/L300P/L318F/N151K/N90K/P208A/P217A/Q86G/Q94H/R138H/R169H/T345S); assay: biochemical
[6] = biological target: A*0202 (Homo sapiens, UniProt P04439, D140Y/D185E/D98H/E176V/E277Q/G131W/G231S/I119L/I121R/I166T/I218V/L180W/L300P/L318F/N151K/N90K/P208A/P217A/Q67R/Q86G/Q94H/R138H/R169H/T345S); assay: biochemical
[7] = biological target: A*0206 (Homo sapiens, UniProt P04439, D140Y/D185E/D98H/E176V/E277Q/F33Y/G131W/G231S/I119V/I121R/I166T/I218V/L300P/L318F/N151K/N90K/P208A/P217A/Q86G/Q94H/R138H/R169H/T345S); assay: biochemical

SMILES | IC50 [1] [µM] | IC50 [2] [µM] | CTL Peptide [3] | CTL Wild-type [4] | also measured
CC[C@H](C)[C@H](NC(=O)[C@@H](NC(=O)[C@H](CC(C)C)NC(=O)[C@@H](NC(=O)[C@@H]1CCCN1C(=O)[C@H](CCCNC(=N)N)NC(=O)[C@@H](N)CCCNC(=N)N)[C@@H](C)CC)[C@@H](C)O)C(=O)N[C@H](C(=O)N[C@H](C(=O)N[C@@H](CC(C)C)C(=O)N[C@@H](CCC(=O)O)C(=O)N[C@@H](CC(=O)O)C(=O)N[C@@H](CO)C(=O)N[C@@H](CO)C(=O)NCC(=O)O)[C@@H](C)O)[C@@H](C)CC [p53.248] | > 10 | – | – | – | –
CC[C@H](C)[C@H](NC(=O)[C@@H](NC(=O)[C@H](CC(C)C)NC(=O)[C@@H](NC(=O)[C@@H]1CCCN1C(=O)[C@H](CCCNC(=N)N)NC(=O)[C@H](CCCNC(=N)N)NC(=O)[C@H](CC(N)=O)NC(=O)[C@H](CCSC)NC(=O)CNC(=O)CNC(=O)[C@@H](N)CCSC)[C@@H](C)CC)[C@@H](C)O)C(=O)N[C@H](C(=O)N[C@H](C(=O)N[C@@H](CC(C)C)C(=O)O)[C@@H](C)O)[C@@H](C)CC [p53.243] | > 10 | > 10 | – | – | –
CC[C@H](C)[C@H](NC(=O)[C@H](CCC(N)=O)NC(=O)[C@H](CC(C)C)NC(=O)[C@@H](NC(=O)[C@H](Cc1ccccc1)NC(=O)[C@H](Cc1ccc(O)cc1)NC(=O)[C@H](CCC(=O)O)NC(=O)CNC(=O)[C@@H](N)CC(=O)O)[C@@H](C)O)C(=O)N[C@@H](CCCNC(=N)N)C(=O)NCC(=O)N[C@@H](CCCNC(=N)N)C(=O)N[C@@H](CCC(=O)O)C(=O)N[C@@H](CCCNC(=N)N)C(=O)N[C@@H](Cc1ccccc1)C(=O)O [p53.324] | > 10 | > 10 | – | – | –
CC[C@H](NC(=O)[C@H](Cc1ccccc1)NC(=O)[C@H](CCSC)NC(=O)[C@H](CCCCN)NC(=O)[C@H](CC(N)=O)NC(=O)[C@H](CC(C)C)NC(=O)[C@H](C)N)C(=O)N[C@@H](CCC(N)=O)C(=O)N[C@H](C(=O)O)C(C)C [p53.129B7V9] (H-ALNKMF[Abu]QV-OH) | – | – | 2/4 | 0/3 | –
CC[C@H](NC(=O)[C@H](Cc1ccccc1)NC(=O)[C@H](CCSC)NC(=O)[C@@H](N)CCCCN)C(=O)N[C@@H](CCC(N)=O)C(=O)N[C@@H](CC(C)C)C(=O)N[C@@H](C)C(=O)N[C@@H](CCCCN)C(=O)N[C@H](C(=O)O)C(C)C [p53.132B4V9] (H-KMF[Abu]QLAKV-OH) | – | – | 5/5 | 0/4 | IC50 [5]: 0.0091 µM; IC50 [6]: 0.013 µM; IC50 [7]: 0.037 µM
CC(C)C[C@H](NC(=O)[C@H](C)NC(=O)[C@H](CCCNC(=N)N)NC(=O)[C@@H](N)CCCCN)C(=O)N1CCC[C@H]1C(=O)N[C@@H](CC(N)=O)C(=O)N[C@@H](CC(N)=O)C(=O)N[C@H](C(=O)N[C@@H](CO)C(=O)N[C@@H](CO)C(=O)N[C@@H](CO)C(=O)N1CCC[C@H]1C(=O)N[C@@H](CCC(N)=O)C(=O)N1CCC[C@H]1C(=O)N[C@@H](CCCCN)C(=O)O)[C@@H](C)O [p53.305] | > 10 | > 10 | – | – | –
